Laboratory results reported in US5457106A, “Pyridine derivatives, their production and use” (Takeda Chemical Industries, Ltd., priority 1991, dated 1995).
Where two headings read alike, the source gives them in different places.

Key:
cyclooxygenase = target: T1, cyclooxygenase (Rattus norvegicus, UniProt Q63921); test: Cyclooxygenase inhibitory activity (HHT formation from arachidonic acid in rat platelet-rich plasma); format: cell-based, rat (Jcl:wistar)
T1 construct: from tissue; host or cells: platelets in platelet-rich plasma from rat abdominal aorta blood (Jcl:wistar, male)
T1 sequence (Q63921 27-602): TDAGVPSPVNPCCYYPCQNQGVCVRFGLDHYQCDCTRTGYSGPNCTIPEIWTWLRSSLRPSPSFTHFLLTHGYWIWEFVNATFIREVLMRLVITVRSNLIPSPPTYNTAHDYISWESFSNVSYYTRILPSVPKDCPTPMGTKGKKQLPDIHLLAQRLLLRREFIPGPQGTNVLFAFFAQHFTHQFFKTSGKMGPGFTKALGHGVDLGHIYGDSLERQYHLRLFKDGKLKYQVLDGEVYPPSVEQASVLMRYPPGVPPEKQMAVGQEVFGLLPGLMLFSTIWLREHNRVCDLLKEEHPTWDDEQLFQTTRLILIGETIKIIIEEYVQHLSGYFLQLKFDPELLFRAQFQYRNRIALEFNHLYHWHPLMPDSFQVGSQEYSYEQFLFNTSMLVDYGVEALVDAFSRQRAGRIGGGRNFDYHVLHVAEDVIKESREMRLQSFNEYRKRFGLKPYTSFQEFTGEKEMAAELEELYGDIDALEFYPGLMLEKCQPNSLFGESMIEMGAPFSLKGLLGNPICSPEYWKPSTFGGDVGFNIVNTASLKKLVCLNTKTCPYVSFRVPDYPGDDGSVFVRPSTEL

[1] = test system: ART (antigen-responding T-cell); test: In vitro ART (antigen-responding T-cell) proliferation test; format: cell-based, Lewis rat; settings: Rattus norvegicus, T-cell, read-out: % Inhibition of ART growth
[2] = test system: Mouse phenylquinone writhing; test: Mouse phenylquinone writhing inhibitory activity; format: in vivo, mouse (Slc: ICR); settings: Mus musculus, po, 20 min, 50 mg/kg, orally; read-out: Inhibitory percentage (phenylquinone writhing)
How it was run: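 Male ICR mice (4 weeks, 17–24 g) dosed orally with compound suspended in 5% gum arabic. After 30 min, 0.02% phenylquinone (0.1 ml/10 g) given i.p.; writhing and stretching responses counted over 20 min.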

[3] = test system: brewer's yeast induced pyrexia; test: Antipyretic activity (brewer's yeast induced pyrexia); format: in vivo, rat (DS line); settings: 50 mg/kg, orally
How it was run: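 Male DS rats (7 weeks, 200-240 g) made febrile by s.c. 15% brewer's yeast 18 h before dosing; only animals at ≥38.5° C used. Compound given orally versus solvent control, with rectal temperature taken by thermistor hourly for 5 h post-dose.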

Rat adjuvant arthritis = test: Activity to rat adjuvant arthritis; format: in vivo, rat (SD or Lewis); settings: 50 mg/kg, day 0 to day 13
ICAM-1 = test: Adhesion protein expression inhibitory activity, ICAM-1; format: cell-based; settings: human umbilical vascular endothelial cells, TNF-α, 360 min
How it was run: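 HUVECs pre-incubated with test compounds 15 minutes at 37° C., then stimulated with TNF-α at 1 ng/ml final for 3 hours (ELAM-1) or 6 hours (ICAM-1). Surface expression measured on glutaraldehyde-fixed cells by cell-ELISA using anti-ELAM-1 BBA-2 or anti-ICAM-1 BBA4 and HRP-labelled anti-mouse IgG.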

[4] = test system: acute renal failure induced by renal ischemia followed by reperfusion in rats; test: Effect on acute renal failure induced by renal ischemia-reperfusion; format: in vivo, rat (Sprague-Dawley); settings: 50 mg/kg, orally, 20 hours of reperfusion
Description: Effect On Acute Renal Failure Induced By Renal Ischemia-Reperfusion Male Sprague-Dawley rats (6 to 7 weeks old) were anesthetized using pentobarbital sodium (50 mg/kg, i.p.) and bilateral renal arteries were completely occluded for 45 minutes followed by reperfusion. After 20 hours of the reperfusion, the blood was collected from the abdominal aorta under anesthesia and the blood urea nitrogen (BUN) was determined.

5-Lipoxygenase = target: T2, 5-Lipoxygenase (Rattus norvegicus, UniProt P12527); test: 5-Lipoxygenase inhibitory activity in rat basophilic leukemia cells; format: cell-based
T2 construct: rat basophilic leukemia cell suspension; endogenous in cells
T2 sequence (P12527 1-673): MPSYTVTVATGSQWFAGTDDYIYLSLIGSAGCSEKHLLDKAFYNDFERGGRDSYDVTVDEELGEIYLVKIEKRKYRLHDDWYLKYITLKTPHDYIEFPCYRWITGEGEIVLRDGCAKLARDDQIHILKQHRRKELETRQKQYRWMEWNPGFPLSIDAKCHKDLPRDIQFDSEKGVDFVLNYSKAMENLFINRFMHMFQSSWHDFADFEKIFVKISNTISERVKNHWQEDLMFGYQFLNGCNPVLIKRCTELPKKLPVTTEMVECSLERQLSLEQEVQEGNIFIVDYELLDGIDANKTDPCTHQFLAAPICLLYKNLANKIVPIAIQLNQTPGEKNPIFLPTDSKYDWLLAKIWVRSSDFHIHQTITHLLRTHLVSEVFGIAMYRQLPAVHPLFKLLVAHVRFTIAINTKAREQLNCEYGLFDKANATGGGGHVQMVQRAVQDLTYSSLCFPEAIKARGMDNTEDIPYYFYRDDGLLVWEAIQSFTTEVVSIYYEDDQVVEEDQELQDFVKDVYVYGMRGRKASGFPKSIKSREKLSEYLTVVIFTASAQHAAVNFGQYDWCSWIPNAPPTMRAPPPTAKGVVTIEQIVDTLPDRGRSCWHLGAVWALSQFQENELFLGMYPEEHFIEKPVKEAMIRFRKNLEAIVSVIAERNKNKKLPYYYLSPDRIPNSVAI
Description: 5-Lipoxygenase Inhibitory Activity […] Then, 0.1 ml of mast cell medium containing 50 μg of arachidonic acid and 1 μg of calcium ionophore (A-23187) were added and the mixture was allowed to stand at 37° C. for 15 minutes. Ethanol (1 ml) was added thereto and the mixture was shaken well, and filtered (Membrane filter, 0.45 μm). […] As a control, the measurement was carried out according to the same manner except that 0.01 ml of the solvent used for dissolving the test compound was used in place of the test compound. The inhibitory percentage (%) was calculated from the following equation to obtain IC50.

[5] = test system: Mouse acetic acid writhing; test: Mouse acetic acid writhing inhibitory activity; format: in vivo, mouse (Slc: ICR); settings: Mus musculus, po, 20 min, orally, read-out: Inhibitory percentage (acetic acid writhing)
How it was run: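 Male ICR mice, 4 weeks old, 10 per group, dosed orally (suspension in 5% gum arabic). After 30 min, 0.6% acetic acid given i.p. and writhing counted for 20 min. Percent inhibition calculated per animal against mean control response.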

ELAM-1 = test: Adhesion protein expression inhibitory activity, ELAM-1; format: cell-based; settings: 13 μM, human umbilical vascular endothelial cells, TNF-α; 180 min
Description: Adhesion Protein Expression Inhibitory Activity The various concentrations of test compounds were added to the human umbilical cord-derived vascular endothelial cells [sold by Klabo] which were seeded in the gelatin coat plate and the mixture was incubated at 37° C. for 15 minutes. Then, the human tumor necrosis factor-α[TNF-α; sold by Genzyme] was added therein to the final concentration of 1 ng/ml and incubation was carried out at 37° C. for 3 hours for expression of ELAM-1 and for 6 hours for that of ICAM-I. After the reaction, the cells were fixed using glutaraldhyde and the expression amount of ELAM-1 and ICAM-1 was measured by the cell-ELISA method. That is, the expression was determined by […] the adhesion proteins on the cells in the system using anti-ELAM-1 antibody BBA-2 and anti-ICAM-1 antibody BBA4 as the first antibody as well as horseradish peroxidase-labeled rabbit anti-mouse IgG antibody as the second antibody.

## Cl.O=C(N(CCCSc1ccncc1)Cc1ccccc1)C(F)(F)F [Example 73, 4-[3-(N-benzyl-N-trifluoroacetylamino)propylthio]pyridine hydrochloride]
cyclooxygenase
  IC50: 2800 nM
[1]
  inhibition at 1 µM: 23%
  inhibition at 10 µM: 82%
[2]
  inhibition in vivo at 50 mg/kg: 75%
[3]
  Antipyretic activity, peak time: 2 h
[3]; at peak time
  Antipyretic activity, .increment. °C.: -0.65 °C
Rat adjuvant arthritis
  Swelling inhibitory percentage: 52%
ICAM-1; 30 μM
  Expression Inhibitory Potency, ICAM-1: 42%
[4]
  Blood urea nitrogen: 68 ± 3 mg/dL

## O=C1SC(=Cc2ccccc2)C(=O)N1CCCCSc1ccncc1 [Example 150, 4-[4-(5-benzylidene-2,4-thiazolidinedione)butylthio]pyridine]
5-Lipoxygenase; 5-HETE, read-out: 5-Lipoxygenase inhibitory activity, 5-HETE IC50
  IC50: 2600 nM
5-Lipoxygenase; LTB4, read-out: 5-Lipoxygenase inhibitory activity, LTB4 IC50
  IC50: 2500 nM
[1]
  inhibition at 1 µM: -31%
  inhibition at 10 µM: 75%
[5]
  inhibition in vivo at 50 mg/kg: 54%
ICAM-1; 30 μM
  Expression Inhibitory Potency, ICAM-1: 94%
[4]
  Blood urea nitrogen: 76.8 ± 16.9 mg/dL

## O=C1SC(=Cc2cccs2)C(=O)N1CCCCSc1ccncc1 [Example 157, 4-[4-[5-(2-thienylmethylene)-2,4-thiazolidinedione]butylthio]pyridine]
[1]
  inhibition at 1 µM: -50%
  inhibition at 10 µM: 62%
ICAM-1; 30 μM
  Expression Inhibitory Potency, ICAM-1: 78%
[4]
  Blood urea nitrogen: 62.4 ± 7.0 mg/dL

## CCCC=C1SC(=O)N(CCCCSc2ccncc2)C1=O [Example 171, 4-[4-(5-propylmethylene-2,4-thiazolidinedione)butylthio]pyridine]
[1]
  inhibition at 1 µM: 96%
  inhibition at 10 µM: 41%
ELAM-1
  Expression Inhibitory Potency, ELAM-1: 94%
ICAM-1; 13 μM
  Expression Inhibitory Potency, ICAM-1: 75%
[4]
  Blood urea nitrogen: 64 ± 11 mg/dL
